# Measurements: PubChem BioAssay (NCI)
# “And” between values parts separate entries of the source, which are not always exact repeats. Identical values can stand only once.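 Five compound concentrations were applied to cells in 96-well plates for 48 hours; endpoints were derived by simple linear interpolation of the resulting dose-response curve. GI50 is the concentration that inhibits growth by half. TGI: concentration producing complete growth inhibition.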
# Experiments:
# Experiment in all cases: growth of human tumour cells (NCI), 48 h
# 786-0 renal = system: 786-0 renal
# A498 renal = system: A498 renal
# A549 NSCLC = system: A549 NSCLC
# ACHN renal = system: ACHN renal
# BT-549 breast = system: BT-549 breast
# CAKI-1 renal = system: CAKI-1 renal
# CCRF-CEM leukemia = system: CCRF-CEM leukemia
# COLO 205 colon = system: COLO 205 colon
# DU-145 prostate = system: DU-145 prostate
# HCC-2998 colon = system: HCC-2998 colon
# HCT-116 colon = system: HCT-116 colon
# HCT-15 colon = system: HCT-15 colon
# HL-60(TB) leukemia = system: HL-60(TB) leukemia
# HOP-62 NSCLC = system: HOP-62 NSCLC
# HOP-92 NSCLC = system: HOP-92 NSCLC
# HS 578T breast = system: HS 578T breast
# HT29 colon = system: HT29 colon
# IGROV1 ovarian = system: IGROV1 ovarian
# K-562 leukemia = system: K-562 leukemia
# KM12 colon = system: KM12 colon
# LOX IMVI melanoma = system: LOX IMVI melanoma
# M14 melanoma = system: M14 melanoma
# MALME-3M melanoma = system: MALME-3M melanoma
# MCF7 breast = system: MCF7 breast
# MDA-MB-231 breast = system: MDA-MB-231 breast
# MDA-MB-435 = system: MDA-MB-435
# MOLT-4 leukemia = system: MOLT-4 leukemia
# NCI-H226 lung = system: NCI-H226 lung
# NCI-H23 lung = system: NCI-H23 lung
# NCI-H460 lung = system: NCI-H460 lung
# NCI-H522 lung = system: NCI-H522 lung
# NCI/ADR-RES ovarian = system: NCI/ADR-RES ovarian
# OVCAR-3 ovarian = system: OVCAR-3 ovarian
# OVCAR-4 ovarian = system: OVCAR-4 ovarian
# OVCAR-5 ovarian = system: OVCAR-5 ovarian
# OVCAR-8 ovarian = system: OVCAR-8 ovarian
# PC-3 prostate = system: PC-3 prostate
# RPMI-8226 leukemia = system: RPMI-8226 leukemia
# RXF 393 renal = system: RXF 393 renal
# SF-268 CNS = system: SF-268 CNS
# SF-295 CNS = system: SF-295 CNS
# SF-539 CNS = system: SF-539 CNS
# SK-MEL-2 melanoma = system: SK-MEL-2 melanoma
# SK-MEL-28 melanoma = system: SK-MEL-28 melanoma
# SK-MEL-5 melanoma = system: SK-MEL-5 melanoma
# SK-OV-3 ovarian = system: SK-OV-3 ovarian
# SN12C renal = system: SN12C renal
# SNB-19 CNS = system: SNB-19 CNS
# SNB-75 CNS = system: SNB-75 CNS
# SR leukemia = system: SR leukemia
# SW-620 colon = system: SW-620 colon
# T-47D breast = system: T-47D breast
# TK-10 renal = system: TK-10 renal
# U251 CNS = system: U251 CNS
# UACC-62 melanoma = system: UACC-62 melanoma
# UO-31 renal = system: UO-31 renal
structure (smiles),measurement,setting,value
O=C(COc1ccccc1)NNc1ccccc1,GI50,786-0 renal,> 68.5 µM and 66.1 µM
same,TGI,786-0 renal,> 300 µM
same,GI50,A498 renal,87.7 µM
same,TGI,A498 renal,> 300 µM
same,GI50,A549 NSCLC,60.4 µM
same,GI50,ACHN renal,12.5 µM and 13.9 µM
same,TGI,ACHN renal,> 300 µM
same,GI50,BT-549 breast,90.7 µM
same,TGI,BT-549 breast,> 300 µM
same,GI50,CAKI-1 renal,6.78 µM and 5.97 µM
same,TGI,CAKI-1 renal,> 80.2 µM and 182 µM
same,GI50,CCRF-CEM leukemia,8.18 µM
same,GI50,COLO 205 colon,17.6 µM and 11.9 µM
same,TGI,COLO 205 colon,> 86.6 µM and 197 µM
same,GI50,DU-145 prostate,> 300 µM
same,TGI,DU-145 prostate,> 300 µM
same,GI50,HCC-2998 colon,27.2 µM and 26.6 µM
same,TGI,HCC-2998 colon,> 300 µM
same,GI50,HCT-116 colon,207 µM
same,TGI,HCT-116 colon,> 300 µM
same,GI50,HCT-15 colon,8.88 µM and 12.3 µM
same,TGI,HCT-15 colon,> 300 µM
same,GI50,HL-60(TB) leukemia,3.91 µM and 9.54 µM
same,TGI,HL-60(TB) leukemia,> 300 µM
same,GI50,HOP-62 NSCLC,116 µM
same,TGI,HOP-62 NSCLC,> 300 µM
same,GI50,HOP-92 NSCLC,71 µM
same,TGI,HOP-92 NSCLC,216 µM
same,GI50,HS 578T breast,98.3 µM
same,TGI,HS 578T breast,> 300 µM
same,GI50,HT29 colon,264 µM
same,TGI,HT29 colon,> 300 µM
same,GI50,IGROV1 ovarian,> 300 µM
same,TGI,IGROV1 ovarian,> 300 µM
same,GI50,K-562 leukemia,3.67 µM and 6.43 µM
same,TGI,K-562 leukemia,> 300 µM
same,GI50,KM12 colon,9.03 µM and 6.49 µM
same,TGI,KM12 colon,> 300 µM
same,GI50,LOX IMVI melanoma,12.3 µM and 12.2 µM
same,TGI,LOX IMVI melanoma,> 300 µM
same,GI50,M14 melanoma,15.2 µM and 13.9 µM
same,TGI,M14 melanoma,171 µM
same,GI50,MALME-3M melanoma,66.9 µM and 101 µM
same,TGI,MALME-3M melanoma,> 300 µM
same,GI50,MCF7 breast,47.8 µM and 38.8 µM
same,TGI,MCF7 breast,> 300 µM
same,GI50,MDA-MB-231 breast,73.2 µM
same,TGI,MDA-MB-231 breast,> 300 µM
same,GI50,MDA-MB-435,12.2 µM and 16.1 µM
same,TGI,MDA-MB-435,> 300 µM
same,GI50,MOLT-4 leukemia,25.5 µM and 16.3 µM
same,TGI,MOLT-4 leukemia,> 300 µM
same,GI50,NCI-H226 lung,> 92.3 µM and 224 µM
same,TGI,NCI-H226 lung,> 300 µM
same,GI50,NCI-H23 lung,> 300 µM
same,TGI,NCI-H23 lung,> 300 µM
same,GI50,NCI-H460 lung,17.1 µM and 15.8 µM
same,TGI,NCI-H460 lung,> 300 µM
same,GI50,NCI-H522 lung,7.79 µM
same,GI50,NCI/ADR-RES ovarian,58.1 µM and 63.3 µM
same,TGI,NCI/ADR-RES ovarian,> 300 µM
same,GI50,OVCAR-3 ovarian,> 95.4 µM and 191 µM
same,TGI,OVCAR-3 ovarian,> 300 µM
same,GI50,OVCAR-4 ovarian,> 300 µM
same,TGI,OVCAR-4 ovarian,> 300 µM
same,GI50,OVCAR-5 ovarian,144 µM
same,TGI,OVCAR-5 ovarian,> 300 µM
same,GI50,OVCAR-8 ovarian,> 56.1 µM and 58.3 µM
same,TGI,OVCAR-8 ovarian,> 300 µM
same,GI50,PC-3 prostate,45.3 µM and 44.1 µM
same,TGI,PC-3 prostate,> 300 µM
same,GI50,RPMI-8226 leukemia,68.3 µM and 274 µM
same,TGI,RPMI-8226 leukemia,> 300 µM
same,GI50,RXF 393 renal,98.9 µM
same,TGI,RXF 393 renal,> 300 µM
same,GI50,SF-268 CNS,140 µM
same,TGI,SF-268 CNS,> 300 µM
same,GI50,SF-295 CNS,18.3 µM and 11.2 µM
same,TGI,SF-295 CNS,> 300 µM
same,GI50,SF-539 CNS,18.1 µM and 9.52 µM
same,TGI,SF-539 CNS,55.1 µM and 37.6 µM
same,GI50,SK-MEL-2 melanoma,74.5 µM
same,TGI,SK-MEL-2 melanoma,> 300 µM
same,GI50,SK-MEL-28 melanoma,> 300 µM
same,TGI,SK-MEL-28 melanoma,> 300 µM
same,GI50,SK-MEL-5 melanoma,46.2 µM and 104 µM
same,TGI,SK-MEL-5 melanoma,> 300 µM
same,GI50,SK-OV-3 ovarian,254 µM
same,TGI,SK-OV-3 ovarian,> 300 µM
same,GI50,SN12C renal,> 300 µM
same,TGI,SN12C renal,> 300 µM
same,GI50,SNB-19 CNS,234 µM
same,TGI,SNB-19 CNS,> 300 µM
same,GI50,SNB-75 CNS,60.8 µM
same,TGI,SNB-75 CNS,251 µM
same,GI50,SR leukemia,> 26.3 µM and 6.77 µM
same,TGI,SR leukemia,> 300 µM
same,GI50,SW-620 colon,13.4 µM and 18.9 µM
same,TGI,SW-620 colon,> 300 µM
same,GI50,T-47D breast,35.2 µM and 19 µM
same,TGI,T-47D breast,> 300 µM
same,GI50,TK-10 renal,> 300 µM
same,TGI,TK-10 renal,> 300 µM
same,GI50,U251 CNS,195 µM
same,TGI,U251 CNS,> 300 µM
same,GI50,UACC-62 melanoma,2.71 µM and 5 µM
same,TGI,UACC-62 melanoma,> 79.5 µM and 91.2 µM
same,GI50,UO-31 renal,10.3 µM and 20.1 µM
same,TGI,UO-31 renal,> 300 µM
